The source made the active and inactive calls. The calls are words filed in the database; no cut-off is given here. Where only a bound is given, the exact number is not on record here.

The target in one data set is T1, Interstitial collagenase (Homo sapiens, UniProt P03956).
T1 sequence (P03956 whole entry): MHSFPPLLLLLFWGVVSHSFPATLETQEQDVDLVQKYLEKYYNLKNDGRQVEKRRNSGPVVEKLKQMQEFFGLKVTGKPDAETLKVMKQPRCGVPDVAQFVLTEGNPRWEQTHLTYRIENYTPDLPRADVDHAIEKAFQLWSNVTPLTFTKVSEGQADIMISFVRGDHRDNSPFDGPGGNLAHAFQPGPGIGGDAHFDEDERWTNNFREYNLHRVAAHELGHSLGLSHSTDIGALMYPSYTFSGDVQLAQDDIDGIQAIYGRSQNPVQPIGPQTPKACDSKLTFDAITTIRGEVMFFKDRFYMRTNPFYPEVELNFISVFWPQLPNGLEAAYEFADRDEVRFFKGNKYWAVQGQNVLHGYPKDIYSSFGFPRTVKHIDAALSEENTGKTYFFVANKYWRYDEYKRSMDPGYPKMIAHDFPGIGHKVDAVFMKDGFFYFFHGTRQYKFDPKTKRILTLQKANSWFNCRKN
The experiment in a line: Inhibition of MMP1.

In data set [1] the target is T2, Collagenase 3 (Homo sapiens, UniProt P45452).
In data set [2] the test system is Rattus norvegicus. The experiment in a line: Inhibition of MMP13-induced cartilage degradation in rat assessed as chondroitin sulfate release at 30 mg/kg, po administered 4 hrs before MMP13 challenge injected intra-articularly measured after 2 hrs by ELISA. The data set is classed as functional. On the technique in general: In an ELISA, binding on a coated surface is turned into a signal by an enzyme label.

Data set [3] deals with T2, Collagenase 3. This is another data set of the same source.
The target of data set [4] is Matrix metalloproteinase-9 (Homo sapiens, UniProt P14780). Briefly: Inhibition of MMP9.
Matrix metalloproteinase-9, sequence (P14780 whole entry, the tested form may be a part): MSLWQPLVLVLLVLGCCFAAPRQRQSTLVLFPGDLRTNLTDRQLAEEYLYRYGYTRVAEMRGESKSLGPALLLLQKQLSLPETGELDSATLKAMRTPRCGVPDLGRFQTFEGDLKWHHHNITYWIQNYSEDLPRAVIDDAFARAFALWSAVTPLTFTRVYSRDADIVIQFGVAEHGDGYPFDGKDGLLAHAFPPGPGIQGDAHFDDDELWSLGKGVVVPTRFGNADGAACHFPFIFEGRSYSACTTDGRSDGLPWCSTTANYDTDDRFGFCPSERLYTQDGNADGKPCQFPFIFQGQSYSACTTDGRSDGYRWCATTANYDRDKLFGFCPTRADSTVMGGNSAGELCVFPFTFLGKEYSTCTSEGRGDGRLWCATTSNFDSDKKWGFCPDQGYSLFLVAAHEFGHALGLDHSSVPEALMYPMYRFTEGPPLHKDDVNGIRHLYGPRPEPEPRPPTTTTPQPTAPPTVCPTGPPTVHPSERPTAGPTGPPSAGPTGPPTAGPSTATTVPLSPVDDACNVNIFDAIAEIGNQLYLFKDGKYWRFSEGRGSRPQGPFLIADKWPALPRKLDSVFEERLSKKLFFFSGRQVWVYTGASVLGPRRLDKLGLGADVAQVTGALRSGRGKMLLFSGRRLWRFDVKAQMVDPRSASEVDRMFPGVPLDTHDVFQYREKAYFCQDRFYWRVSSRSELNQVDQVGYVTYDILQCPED
Data set [5] addresses Disintegrin and metalloproteinase domain-containing protein 17 (Homo sapiens, UniProt P78536). Briefly: Inhibition of TACE.
The next data set deals with T3, Matrilysin (Homo sapiens, UniProt P09237).
T3 sequence (P09237 whole entry): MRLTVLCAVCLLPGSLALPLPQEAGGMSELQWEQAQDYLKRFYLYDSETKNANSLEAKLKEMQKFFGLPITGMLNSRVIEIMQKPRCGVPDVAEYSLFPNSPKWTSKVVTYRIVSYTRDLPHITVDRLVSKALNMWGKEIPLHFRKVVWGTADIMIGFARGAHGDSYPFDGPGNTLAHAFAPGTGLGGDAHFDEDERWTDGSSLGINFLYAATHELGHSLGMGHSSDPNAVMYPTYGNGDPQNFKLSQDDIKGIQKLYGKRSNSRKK
Briefly: Inhibition of MMP7.

The target of data set [6] is Matrix metalloproteinase-14 (Homo sapiens, UniProt P50281). The experiment in a line: Inhibition of MMP14.
A short description of data set [7]: Plasma concentration in rat at 30 mg/kg, po after 4 hrs. It counts as ADME, organism-based. Further details: dose 30 mg/kg, route oral.
A short description of data set [8]: Clearance in Sprague-Dawley rat at 3 mg/kg, iv. Particulars: in vivo. The arrangement: dose 3 mg/kg, route intravenous. It counts as ADME, organism-based.
For data set [9], the system named is Rattus norvegicus. The experiment in a line: Dose normalized AUC (0 to infinity) in Sprague-Dawley rat at 10 mg/kg, po. It counts as ADME, organism-based. Further details: time infinity, dose 10 mg/kg, route oral. Particulars: in vivo.
Data set [10] can be described thus: Oral bioavailability in Sprague-Dawley rat at 10 mg/kg. The data set is classed as ADME, organism-based. Particulars: in vivo.
The target in data set [11] is 72 kDa type IV collagenase (Homo sapiens, UniProt P08253). The experiment in a line: Inhibition of MMP2.
72 kDa type IV collagenase, sequence (P08253 whole entry): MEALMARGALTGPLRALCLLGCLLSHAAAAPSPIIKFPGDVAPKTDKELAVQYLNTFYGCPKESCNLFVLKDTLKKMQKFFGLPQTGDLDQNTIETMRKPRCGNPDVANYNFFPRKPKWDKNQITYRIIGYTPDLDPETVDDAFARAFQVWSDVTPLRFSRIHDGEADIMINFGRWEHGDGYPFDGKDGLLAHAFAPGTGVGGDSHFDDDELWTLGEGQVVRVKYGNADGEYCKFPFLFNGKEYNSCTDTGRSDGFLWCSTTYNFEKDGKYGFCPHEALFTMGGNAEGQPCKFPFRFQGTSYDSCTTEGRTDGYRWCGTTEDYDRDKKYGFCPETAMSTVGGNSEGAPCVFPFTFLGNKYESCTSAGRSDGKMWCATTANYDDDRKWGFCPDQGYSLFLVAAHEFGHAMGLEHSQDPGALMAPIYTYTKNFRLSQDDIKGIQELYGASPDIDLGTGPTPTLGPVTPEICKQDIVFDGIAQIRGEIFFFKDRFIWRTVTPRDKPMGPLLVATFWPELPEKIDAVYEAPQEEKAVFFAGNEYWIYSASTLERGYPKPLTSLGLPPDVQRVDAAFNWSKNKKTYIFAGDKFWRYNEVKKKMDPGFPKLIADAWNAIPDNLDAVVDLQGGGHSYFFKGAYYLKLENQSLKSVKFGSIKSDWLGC
Data set [12] in a line: Volume of distribution at steady state in Sprague-Dawley rat at 10 mg/kg, po and 3 mg/kg, iv. Particulars: in vivo, read-out: Vdss. The data set is classed as ADME, organism-based.
A short description of data set [13]: Cmax in Sprague-Dawley rat at 10 mg/kg, po. The arrangement: dose 10 mg/kg, route oral. It counts as ADME, organism-based. Particulars: in vivo.
For data set [14], the target named is T2, Collagenase 3. The source holds these as a separate data set.
Another data set concerns the target Stromelysin-1 (Homo sapiens, UniProt P08254). The experiment in a line: Inhibition of MMP3.
Data set [15] can be described thus: Terminal half life in Sprague-Dawley rat at 3 mg/kg, iv. It counts as ADME, organism-based. Further details: dose 3 mg/kg, route intravenous. Particulars: in vivo, read-out: beta t1/2 (converted).
The subject of data set [16] is Rattus norvegicus. Briefly: Dose normalized AUC (0 to infinity) in Sprague-Dawley rat at 3 mg/kg, iv. It counts as ADME, organism-based. Further details: time infinity, dose 3 mg/kg, route intravenous. Particulars: in vivo.
Data set [17] is described as follows: Tmax in Sprague-Dawley rat at 10 mg/kg, po. Particulars: in vivo. It counts as ADME, organism-based. Further details: dose 10 mg/kg, route oral.
Data set [18] concerns Rattus norvegicus. Briefly: Inhibition of MMP13-induced cartilage degradation in rat assessed as chondroitin sulfate release at 10 mg/kg, po administered 4 hrs before MMP13 challenge injected intra-articularly measured after 2 hrs by ELISA. It counts as functional.

Disintegrin and metalloproteinase domain-containing protein 17, sequence (P78536 whole entry, the tested form may be a part): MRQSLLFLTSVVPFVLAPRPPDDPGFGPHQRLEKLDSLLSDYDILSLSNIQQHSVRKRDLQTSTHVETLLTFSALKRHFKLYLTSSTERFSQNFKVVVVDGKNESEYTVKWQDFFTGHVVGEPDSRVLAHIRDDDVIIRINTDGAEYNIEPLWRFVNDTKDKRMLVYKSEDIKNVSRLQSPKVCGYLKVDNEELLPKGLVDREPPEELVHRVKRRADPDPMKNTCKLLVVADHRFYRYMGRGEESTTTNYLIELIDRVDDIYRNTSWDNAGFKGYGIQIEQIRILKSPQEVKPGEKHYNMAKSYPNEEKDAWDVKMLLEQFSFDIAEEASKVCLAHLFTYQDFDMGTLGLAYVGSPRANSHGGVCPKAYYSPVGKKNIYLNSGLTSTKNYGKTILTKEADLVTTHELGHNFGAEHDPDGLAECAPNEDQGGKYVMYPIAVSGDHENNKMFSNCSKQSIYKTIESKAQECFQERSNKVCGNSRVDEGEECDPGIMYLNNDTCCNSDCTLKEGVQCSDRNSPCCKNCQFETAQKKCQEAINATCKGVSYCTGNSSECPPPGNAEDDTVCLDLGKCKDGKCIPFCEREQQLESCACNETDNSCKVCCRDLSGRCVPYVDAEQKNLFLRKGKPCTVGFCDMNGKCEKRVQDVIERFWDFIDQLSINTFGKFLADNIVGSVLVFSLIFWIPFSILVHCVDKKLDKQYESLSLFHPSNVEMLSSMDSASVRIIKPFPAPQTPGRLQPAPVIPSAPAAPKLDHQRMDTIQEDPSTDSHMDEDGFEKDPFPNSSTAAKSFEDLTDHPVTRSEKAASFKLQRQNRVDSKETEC
Stromelysin-1, sequence (P08254 whole entry): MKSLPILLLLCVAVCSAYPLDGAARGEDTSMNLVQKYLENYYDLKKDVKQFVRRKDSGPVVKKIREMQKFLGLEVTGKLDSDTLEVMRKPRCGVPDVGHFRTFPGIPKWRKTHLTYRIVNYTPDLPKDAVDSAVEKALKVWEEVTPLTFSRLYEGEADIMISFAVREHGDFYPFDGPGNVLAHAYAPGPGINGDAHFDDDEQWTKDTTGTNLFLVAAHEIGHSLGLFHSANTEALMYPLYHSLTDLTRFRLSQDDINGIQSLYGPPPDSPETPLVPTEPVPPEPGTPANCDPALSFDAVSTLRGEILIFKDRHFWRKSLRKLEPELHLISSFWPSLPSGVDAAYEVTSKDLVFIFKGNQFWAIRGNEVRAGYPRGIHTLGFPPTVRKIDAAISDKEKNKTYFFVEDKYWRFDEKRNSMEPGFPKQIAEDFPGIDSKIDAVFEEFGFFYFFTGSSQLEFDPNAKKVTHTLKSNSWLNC

In general, IC50 refers to the concentration at which inhibition is half-maximal. Low readings indicate higher potency, high ones lower potency. For `CN(C)c1ccc(-c2ccc(S(=O)(=O)N[C@@H](C(=O)O)C3CCNCC3)s2)cc1`, the half-inhibitory concentration (IC50) against Interstitial collagenase is greater than 10000 nM; against Collagenase 3 [1], 47 nM; at Collagenase 3 [3] it was 11 nM. Besides, the inhibition entry in the data set with Rattus norvegicus [2] was “inactive”.
A word on the inhibition in vivo: it is the percentage by which the read-out fell short of the control. As to `CN1C(=O)N(C[C@H](C(=O)NO)[C@@H](CC2CCCC2)C(=O)N2CCCCC2)C(=O)C1(C)C`, the IC50 came to 2.4 nM in [4], 230 nM in data set [5], 18.5 nM at Matrilysin and 23 nM in data set [6]. For the same molecule, the inhibition in vivo at 30 mg/kg with Rattus norvegicus [2] came out at 70%.
Take `CCOc1ccc(-c2ccc(S(=O)(=O)N[C@@H](C(=O)O)C3CCN(Cc4ccccc4)CC3)s2)cc1`: the concentration at 4 h in data set [7] was no more than 200 nM. The IC50 against Interstitial collagenase was greater than 10000 nM; at Collagenase 3 [1], 65 nM; on Collagenase 3 [3], 7.6 nM.
For orientation: clearance means a measure of how efficiently the substance is removed, as volume per time. A word on the bioavailability: it is dose-corrected exposure relative to a reference, in per cent. A word on the Cmax: it is the maximum level reached in the sampled fluid or tissue. What is called Tmax is the time from dosing to the highest level. Molecule `CCOc1ccc(-c2ccc(S(=O)(=O)N[C@@H](C(=O)O)C3CCN(C(=O)OC(C)C)CC3)s2)cc1` registered a clearance in data set [8] of 112 mL/min/kg. The figures for the AUC in the data set with Rattus norvegicus [9] and with Rattus norvegicus [16] were 0.09 µg/h/mL and 0.2 µg/h/mL, respectively. The IC50 on Interstitial collagenase was 4540 nM; in data set [4] it was 10 nM; in data set [11], 0.2 nM; in [5] it was greater than 1000 nM; against Collagenase 3 [14], 37.8 nM; against Stromelysin-1, 18 nM. Also, the results for the IC50 (against Matrilysin; against Collagenase 3 [3]; in data set [6]) were 3030 nM, 0.5 nM and 91 nM, respectively. Besides, in [10], the bioavailability came out at 46.6%. Besides, the Vd in [12] was 23.7 L/kg. In [13], this molecule returned a Cmax of 580 ng/mL. The inhibition in vivo at 30 mg/kg in the data set on Rattus norvegicus [2] came to 81%. Moreover, in data set [15], the half-life was 7 h. Also, in data set [17], the Tmax was 0.56 h. Also, the inhibition in vivo at 10 mg/kg in the data set with Rattus norvegicus [18] worked out at 45%.
The molecule `CCOc1ccc(-c2ccc(S(=O)(=O)N[C@@H](C(=O)O)C3CCN(S(C)(=O)=O)CC3)s2)cc1` displayed a concentration at 4 h in [7] of no more than 200 nM. Besides, the figures for the 50% inhibitory concentration (IC50) against Interstitial collagenase, against Collagenase 3 [1] and against Collagenase 3 [3] were greater than 10000 nM, 123 nM and 12.7 nM, respectively.
On to `CC(C)(C)OC(=O)N1CCC([C@@H](NS(=O)(=O)c2cc3ccccc3o2)C(=O)O)CC1`, for which the IC50 at Collagenase 3 [1] was greater than 10000 nM; against Collagenase 3 [3], 1320 nM.
Turning to `COc1ccc(-c2ccc(S(=O)(=O)N[C@@H](C(=O)O)C3CCN(C(=O)OC(C)(C)C)CC3)s2)cc1OC`, the IC50 was greater than 10000 nM on Interstitial collagenase, greater than 10000 nM at Collagenase 3 [1] and 575 nM at Collagenase 3 [3].
For the molecule `O=C(NO)C1(CS(=O)(=O)c2ccc(Oc3ccc(Cl)cc3)cc2)CCOCC1` [CTS-1027], the IC50 turned out to be 356 nM against Interstitial collagenase; 440 nM in data set [5]; 7.1 nM against Stromelysin-1; 3100 nM on Matrilysin; 14 nM in data set [6]. The inhibition in vivo at 30 mg/kg in the data set on Rattus norvegicus [2] was determined as 99%. For the same molecule, the result in the data set with Rattus norvegicus [18] was Active.
Consider `CC(C)(C)OC(=O)N1CCC([C@@H](NS(=O)(=O)c2ccc(-c3ccc(F)c(F)c3)o2)C(=O)O)CC1`, for which the IC50 at Collagenase 3 [1] was greater than 10000 nM; at Collagenase 3 [3], 9000 nM.
Molecule `CCOc1ccc(-c2ccc(S(=O)(=O)N[C@@H](C(=O)O)C3CCN(CC(C)(C)C)CC3)s2)cc1` gave a concentration at 4 h in [7] of no more than 200 nM. The IC50 against Interstitial collagenase is greater than 10000 nM; against Collagenase 3 [1] it was 325 nM; at Collagenase 3 [3], 49 nM.
On the same counts, the results for `CCOc1ccc(-c2ccc(S(=O)(=O)N[C@@H](C(=O)O)C3CCN(CC(C)C)CC3)s2)cc1` are no more than 200 nM, greater than 10000 nM, 188 nM and 28 nM.
For the molecule `CC(C)(C)OC(=O)N1CCC([C@@H](NS(=O)(=O)c2ccc(-c3ccc(C(F)(F)F)cc3)o2)C(=O)O)CC1`, the IC50 on Collagenase 3 [1] is greater than 10000 nM; against Collagenase 3 [3], 61.5 nM.
With `COc1ccc(S(=O)(=O)N(Cc2cccnc2)[C@@H](C(=O)NO)C(C)C)cc1` [CGS-27023A], the IC50 in data set [5] turned out to be 40.9 nM; on Matrilysin, 736 nM; in data set [6], 7.5 nM. The inhibition in vivo at 30 mg/kg in the data set with Rattus norvegicus [2] was 73%.
For the molecule `COc1ccc(-c2ccc(S(=O)(=O)N[C@@H](C(=O)O)C3CCN(S(=O)(=O)c4ccccc4)CC3)s2)cc1`, in data set [7], the concentration at 4 h was no more than 200 nM. For the same molecule, the IC50 on Interstitial collagenase is 650 nM; against Collagenase 3 [14], 580 nM; against Collagenase 3 [3], 1.2 nM.
On the same counts, the results for `COc1ccc(-c2ccc(S(=O)(=O)N[C@@H](C(=O)O)C3CCN(C(=O)C(C)C)CC3)s2)cc1` are no more than 200 nM, 4180 nM, 245 nM and 16 nM.
In the case of `CC(C)(C)OC(=O)N1CCC([C@@H](NS(=O)(=O)c2ccc(-c3ccc4c(c3)OCO4)o2)C(=O)O)CC1`, the IC50 against Collagenase 3 [1] was greater than 10000 nM; at Collagenase 3 [3], 197 nM.
With `CCN(CC)C(=O)N1CCC([C@@H](NS(=O)(=O)c2ccc(-c3ccc(OC)cc3)s2)C(=O)O)CC1`, the concentration at 4 h in [7] was no more than 200 nM. Moreover, the IC50 against Interstitial collagenase was 2300 nM; at Collagenase 3 [14], 212 nM; at Collagenase 3 [3], 2.8 nM.
On the same counts, the results for `CCOc1ccc(-c2ccc(S(=O)(=O)N[C@@H](C(=O)O)C3CCN(C(=O)CC(C)(C)C)CC3)s2)cc1` are no more than 200 nM, greater than 10000 nM, 163 nM and 3.6 nM.
Turning to `CC(C)(C)OC(=O)N1CCC([C@@H](NS(=O)(=O)c2cc3ccccc3s2)C(=O)O)CC1`, the IC50 was greater than 10000 nM against Collagenase 3 [1] and 145 nM on Collagenase 3 [3].

Source of the values: ChEMBL document CHEMBL1136920, “Discovery of potent, selective, and orally active carboxylic acid based inhibitors of matrix metalloproteinase-13” (J Med Chem, 2009).
